Experimental data taken from patent publication US20130345420A9, “SELECTIVE INHIBITORS OF EXCITATORY AMINO ACID TRANSPORTER SUBTYPE 1 (EAAT1/GLAST)” (priority 2008, published 2013).
Read-outs that look alike come from different tables or passages of the source. One block for each compound: values may come before it.

Tests used:
human EAAT1 = target: T1, human EAAT1 (Homo sapiens, UniProt P43003); experiment: [3H]-D-Aspartic acid uptake assay, HEK293 cells stably expressing EAAT1; assay type: cell-based
T1 construct: expressed in transfected cells
Procedure: (§1) Table 1: Inhibition of [^3H]-D-Asp uptake in HEK293 cells stably expressing human EAAT1, EAAT2 and EAAT3. The IC50 values are given in μM with pIC50±S.E.M. values in brackets (n=3-7).
(§2) The functional properties of the novel compounds of the invention were assessed in a [^3H]-D-Aspartic acid uptake assay using HEK293 cell lines stably expressing the human EAAT subtypes EAAT1, EAAT2 and EAAT3. Furthermore, some of the compounds were assayed at human EAAT1, EAAT2 and EAAT3 and the rat orthologs GLAST, GLT-1 and EAAC-1 in the FLIPR® Membrane Potential (FMP) Blue assay (Molecular Devices, Crawley, UK).
(§3) FIG. I depicts a graph showing the concentration-inhibition curves for 1o at the human EAAT subtype EAAT1 stably expressed in HEK293 cell lines in a [^3H]-D-aspartic acid uptake assay. The cells (grown in wells of 96-well plates) were washed twice with assay buffer, and incubated with buffer supplemented with 30 nM [^3H]-D-aspartic acid in the absence (control) or presence of increasing concentrations of 1o at […] for 7 min. The assay mixtures were then quickly removed from the wells, and the cells were washed with 3 times with ice-cold buffer, scintillation fluid was added to each well, and the plate was counted in a TopCounter.

human EAAT3 = target: T2, human EAAT3 (Homo sapiens, UniProt P43005); experiment: [3H]-D-Aspartic acid uptake assay, HEK293 cells stably expressing EAAT3; assay type: cell-based; settings: n=3-7, read-out: Inhibition of [3H]-D-Asp uptake, EAAT3, IC50
T2 construct: expressed in transfected cells
T2 sequence (P43005 1-524): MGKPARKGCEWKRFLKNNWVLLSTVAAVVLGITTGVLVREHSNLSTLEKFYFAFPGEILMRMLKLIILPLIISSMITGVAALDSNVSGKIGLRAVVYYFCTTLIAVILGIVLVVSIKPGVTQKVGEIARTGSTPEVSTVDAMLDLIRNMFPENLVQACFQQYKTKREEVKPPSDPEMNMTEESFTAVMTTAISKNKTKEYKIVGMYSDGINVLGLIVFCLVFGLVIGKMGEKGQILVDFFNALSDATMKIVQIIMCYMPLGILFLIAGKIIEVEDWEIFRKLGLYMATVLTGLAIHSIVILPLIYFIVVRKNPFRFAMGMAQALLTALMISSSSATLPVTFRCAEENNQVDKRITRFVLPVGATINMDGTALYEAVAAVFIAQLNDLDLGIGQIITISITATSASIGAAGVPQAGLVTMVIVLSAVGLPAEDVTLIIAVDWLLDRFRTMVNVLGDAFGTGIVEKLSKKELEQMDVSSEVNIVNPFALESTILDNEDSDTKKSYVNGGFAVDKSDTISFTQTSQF
Procedure: as §1, §2, §3

human EAAT2 = target: T3, human EAAT2 (Homo sapiens, UniProt P43004); experiment: [3H]-D-Aspartic acid uptake assay, HEK293 cells stably expressing EAAT2; assay type: cell-based; settings: n=3-7, read-out: Inhibition of [3H]-D-Asp uptake, EAAT2, IC50
T3 construct: expressed in transfected cells
Procedure: as §1, §2, §3

Solubility in solvents = assay type: physicochemical; settings: aq buffer solutions (pH=7.4), DMSO and CDCl3
[1] = HEK293 cells stably expressing human EAAT1, n=3-7, read-out: Inhibition of [3H]-D-Asp uptake, EAAT1, IC50
[2] = HEK293 cells stably expressing human EAAT1, value in brackets, n=3-7
[3] = HEK293 cells stably expressing human EAAT1, value in brackets, n=3-7, read-out: Inhibition of [3H]-D-Asp uptake, EAAT1, pIC50±S.E.M. (converted)

T1 sequence (P43003 whole entry): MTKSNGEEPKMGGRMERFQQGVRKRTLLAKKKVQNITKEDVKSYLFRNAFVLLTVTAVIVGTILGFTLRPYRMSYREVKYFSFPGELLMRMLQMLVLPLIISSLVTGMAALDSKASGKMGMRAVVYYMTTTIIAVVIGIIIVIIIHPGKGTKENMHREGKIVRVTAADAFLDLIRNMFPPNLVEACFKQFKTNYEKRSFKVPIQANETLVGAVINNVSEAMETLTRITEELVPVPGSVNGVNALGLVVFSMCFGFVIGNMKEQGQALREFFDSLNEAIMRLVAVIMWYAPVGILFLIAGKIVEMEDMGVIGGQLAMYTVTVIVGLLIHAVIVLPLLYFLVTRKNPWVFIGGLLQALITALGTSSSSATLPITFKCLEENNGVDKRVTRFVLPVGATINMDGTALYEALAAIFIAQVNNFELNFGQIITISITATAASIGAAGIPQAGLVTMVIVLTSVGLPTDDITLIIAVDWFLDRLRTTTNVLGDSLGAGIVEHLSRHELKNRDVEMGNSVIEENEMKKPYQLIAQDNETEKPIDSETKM
T3 sequence (P43004 whole entry): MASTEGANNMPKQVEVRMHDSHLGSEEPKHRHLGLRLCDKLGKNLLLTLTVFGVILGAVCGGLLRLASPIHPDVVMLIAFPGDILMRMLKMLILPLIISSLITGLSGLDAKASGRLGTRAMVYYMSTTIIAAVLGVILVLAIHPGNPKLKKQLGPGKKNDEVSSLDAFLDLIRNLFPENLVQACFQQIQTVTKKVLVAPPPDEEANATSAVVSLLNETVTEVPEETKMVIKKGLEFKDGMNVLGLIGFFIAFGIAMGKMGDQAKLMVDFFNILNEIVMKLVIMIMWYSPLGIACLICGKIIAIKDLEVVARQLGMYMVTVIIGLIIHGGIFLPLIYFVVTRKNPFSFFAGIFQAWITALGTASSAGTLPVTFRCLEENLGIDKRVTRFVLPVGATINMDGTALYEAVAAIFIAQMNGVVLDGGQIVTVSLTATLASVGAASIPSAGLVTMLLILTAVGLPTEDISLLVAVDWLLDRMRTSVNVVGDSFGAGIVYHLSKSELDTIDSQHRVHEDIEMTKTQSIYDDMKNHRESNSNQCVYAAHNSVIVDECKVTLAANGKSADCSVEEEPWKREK

SMILES: COc1ccc(C2C(C#N)=C(N)OC3=C2C(=O)CC(c2ccco2)C3)cc1OC(=O)N1CCOCC1 (stereo not shown) [1q]
IC50 (human EAAT1): ~100 µM

SMILES: N#CC1=C(N)OC2=C(C(=O)CC(c3ccccc3)C2)C1Cc1ccccc1 (stereo not shown) [1u]
IC50 (human EAAT1; [1]): ~30 µM

SMILES: CC1C(C#N)=C(N)OC2=C1C(=O)CC(c1cccc3ccccc13)C2 (stereo not shown) [1w, 2-Amino-4-methyl-7-(naphthalene-1-yl)-5-oxo-5,6,7,8-tetrahydro-4H-chromene-3-carbo-nitrile]
Solubility in comparison with 1o (Solubility in solvents): significantly more soluble
IC50 (human EAAT3): > 300 µM
IC50 (human EAAT2): > 300 µM
IC50 (human EAAT1; [1]): 0.58 µM
IC50 (human EAAT1; [3]): 0.562 µM

Further lines, results first:

IC50 (human EAAT1; [1]): 2.3 µM
Inhibition of [3H]-D-Asp uptake, EAAT1, pIC50±S.E.M. (human EAAT1; [2]): 5.64 ± 0.05
SMILES: COc1ccc(C2C(C#N)=C(N)OC3=C2C(=O)CC(c2ccccc2)C3)cc1 (stereo not shown) [1c, 2-Amino-4-(4-methoxyphenyl)-7-(phenyl)-5-oxo-5,6,7,8-tetrahydro-4H-chromene-3-carbonitrile]

IC50 (human EAAT1; [3]): ~50.1 µM
SMILES: COc1cccc(C2C(C#N)=C(N)OC3=C2C(=O)CC(c2ccccc2)C3)c1OC (stereo not shown) [1f]

IC50 (human EAAT3): > 300 µM
IC50 (human EAAT2): > 300 µM
melting point: 159.9 to 161.4 °C
IC50 (human EAAT1; [1]): 11 µM
Inhibition of [3H]-D-Asp uptake, EAAT1, pIC50±S.E.M. (human EAAT1; [2]): 4.97 ± 0.05
SMILES: COc1ccc(C2C(C#N)=C(N)OC3=C2C(=O)CC(c2ccc(OC)c(OC)c2)C3)cc1 (stereo not shown) [1n, 2-Amino-4-(4-methoxyphenyl)-7-(3,4-dimethoxyphenyl)-5-oxo-5,6,7,8-tetrahydro-4H-chromene-3-carbonitrile]

IC50 (human EAAT1; [1]): ~30 µM
SMILES: N#CC1=C(N)OC2=C(C(=O)CC(c3ccccc3)C2)C1c1cccnc1 (stereo not shown) [1s]
